Measurements reported in patent publication EP0319986B1, “Anti-plasmin depressant” (NIPPON SHINYAKU COMPANY, LIMITED, priority 1987, dated 1989).
Structures can show the parent of a compound that is named as a salt.

Test system: not listed separately
Experiment: Test on acute toxicity
Conditions: mouse, in vivo, ip
Method: Four (4) ddY strain male mice of 6 week age were used for each group of the test sample.
In intravenous administration, each sample was dissolved in 0.9% physiological saline and the solution was administered through the tail vein. In intraperitoneal administration, each sample was suspended in 0.5% CMC-physiological saline and 0.1 ml of the suspension per […] of mouse body weight was intraperitoneally administered. In oral administration, each sample was suspended in 0.5% CMC-physiological saline and 0.2 ml of the suspension per […] administered.
Observation was made immediately after the administration. After observation for 1 week after the administration, the mice was sacrificed with chloroform and subjected to autopsy.

For `OC[C@H]1NC[C@H](O)[C@@H](O)[C@@H]1O` [Compound No. 1, Moranoline], the LD50 at 168 h was 5000 mg/kg.

Same assay, conditions: mouse, in vivo, iv

Work on `OC[C@H]1NC[C@H](O)[C@@H](O)[C@@H]1O` [Compound No. 1, Moranoline] yielded an LD50 at 168 h of 3240 mg/kg.

Same assay, conditions: mouse, in vivo, po

For `OC[C@H]1NC[C@H](O)[C@@H](O)[C@@H]1O` [Compound No. 1, Moranoline], the LD50 at 168 h was 7500 mg/kg.

Test system: CPAE (calf pulmonary artery endothelia)
Experiment: Thrombolytic test in vitro: CPAE culture supernatant on fibrin plate, lysis circle
Format: cell-based
Conditions: 5 µl of 0.2 mg/ml compound solution per well of CPAE cells, 72 hours; 5 µl supernatant on fibrin plate with plasminogen, 4 hours; 4 mm or more = thrombolytic ability induced
Method: Thrombolytic activity-inducing ability in the established vascular endothelial cell culture system was examined using CPAE (calf pulmonary artery endothelia).
[…] cells were purchased from Dainippon Pharmaceutical Co., Ltd., Department of Laboratory Products. CPAE cells were subcultured in 10% FCS-Eagle MEM medium charged in a culture flask of 25 cm^2. From the cell suspension fractionated upon subculture, 0.1 ml was transferred into a test tube with a sterilized pipette. Then, the cell suspension was diluted to 10 fold with 0.9 ml of Trypan Blue solution and a cell count was counted with a cell counter. After diluting with 10% FCS-Eagle MEM medium so as to have a cell count of 2 x 10^5 cells/ml, 100 µl each/well, namely, 2 x 10^4 cells/well, of the dilution was dispensed in a 96 well microtiter plate (manufactured by Corning) with a micropipette. The plate was incubated at 37°C in 5% CO2.
The compound used according to the present invention was dissolved in medium in 0.2 mg/ml; the compound that was insoluble in the medium was dissolved in less than 1% of DMSO and the resulting solution was aseptically filtered through a filter; 5 µl of the solution was added to the well with a sterilized micropipette 24 hours after onset of the incubation. After culturing at 37°C for 72 hours in 5% CO2, the collected culture supernatant was provided for measurement.
The measurement was performed as follows. Plasminogen, 5 µl, was charged in a well of fibrin plate (manufactured by Kitazato institute), which was allowed to stand until diffusion was completed. After diffusion, 5 µl of the supernatant was charged and then put in a carbon dioxide gas incubator of 37°C. Four hours after, evaluation was made by formation of a transparent lysis circle by fibrinolysis.
In the case of forming a circle of 4 mm or more due to fibrinolysis, it was judged that thrombolytic ability of CPAE cells was induced.
After the fibrinolytic activity was checked over, the well was fixed with 2.5% of glutaraldehyde in a final concentration. Then, the solution was discarded and the system was washed with PBS. After washing, moisture was removed. After staining with 100 µl of 0.1% crystal violet and allowing stand for 2 to 3 minutes, the system was washed with running water. After an excess of the staining solution was washed out, moisture was removed and the dye bound to the cells was eluted by 100 µl of methanol. Using multiscanning (Titertech), measurements were performed at a wavelength of 580 nm in accordance with the ABS method and the matrix method to confirm that the cells were not injured.

Compared with `CCCCN1C[C@H](O)[C@@H](O)[C@H](O)[C@H]1CO` [Compound No. 2a, N-(n-Butyl)moranoline], `CCCCCCN1C[C@H](O)[C@@H](O)[C@H](O)[C@H]1CO` [Compound No. 8, N-Hexylmoranoline tosylate] is lower in “Diameter (mm) of the circle due to fibrinolysis” value (“Diameter (mm) of the circle due” for short): 7.5 mm for the first, 6.3 mm for the second.

First: CCCCCCCCC(O)CN1C[C@H](O)[C@@H](O)[C@H](O)[C@H]1CO (stereo partly shown) [Compound No. 10, N-(2-Hydroxydecyl)moranoline tosylate]
Second: OC[C@@H]1[C@@H](O)[C@H](O)[C@@H](O)CN1CCCc1ccccc1 [Compound No. 12, N-(3-Phenylpropyl)moranoline tosylate]
The “Diameter (mm) of the circle due” value of the first is lower: 4.5 mm for the first, 5.9 mm for the second.

First: OC[C@@H]1[C@@H](O)[C@H](O)[C@@H](O)CN1CC=Cc1ccccc1 [Compound No. 14, N-Cinnamylmoranoline hydrochloride]
Second: OC[C@@H]1[C@@H](O)[C@H](O)[C@@H](O)CN1CCCCc1ccccc1 [Compound No. 15, N-4-Phenylbutylmoranoline tosylate]
The “Diameter (mm) of the circle due” value of the first is lower: 5.9 mm for the first, 6.3 mm for the second.

Going from `OC[C@@H]1[C@@H](O)[C@H](O)[C@@H](O)CN1CCCOc1ccccc1` [Compound No. 17, N-(3-Phenoxypropyl)moranoline tosylate] to `OC[C@@H]1[C@@H](O)[C@H](O)[C@@H](O)CN1CCCCCc1ccccc1` [Compound No. 18, N-5-(Phenylpentyl)moranoline tosylate], the “Diameter (mm) of the circle due” value falls from 7.5 mm to 6.8 mm.

First: OC[C@@H]1[C@@H](O)[C@H](O)[C@@H](O)CN1CCC1CCCC1 [Compound No. 19, N-(2-Cyclopentylethyl)moranoline tosylate]
Second: COCCOc1cccc(C(C)=CCN2C[C@H](O)[C@@H](O)[C@H](O)[C@H]2CO)c1 [Compound No. 20, N-[3-(3-Methoxyethoxyphenyl)-2-butenyl]moranoline]
The “Diameter (mm) of the circle due” value of the first is lower: 5.8 mm for the first, 8.0 mm for the second.

First: C[N+]1(C)C[C@H](O)[C@@H](O)[C@H](O)[C@H]1CO [Compound No. 21, N,N-Dimethylmoranoline ammonium iodide]
Second: CCN1C[C@H](O)[C@@H](O)[C@H](O)[C@H]1CO [Compound No. 22, N-Ethylmoranoline]
The “Diameter (mm) of the circle due” value of the first is lower: 5.6 mm for the first, 6.5 mm for the second.

Going from `OCC1C(O)C(O)C(O)CN1CC=Cc1ccccc1` (stereo not shown) [Compound No. 23, N-Cinnamylmoranoline] to `CC(C)=CCC/C(C)=C/CN1C[C@H](O)[C@@H](O)[C@H](O)[C@H]1CO` [Compound No. 24, N-Geranylmoranoline tosylate], the “Diameter (mm) of the circle due” value falls from 8.4 mm to 7.6 mm.

Going from `OC[C@@H]1[C@@H](O)[C@H](O)[C@@H](O)CN1CC(O)COc1ccccc1` (stereo partly shown) [Compound No. 25, N-(2-Hydroxy-3-phenoxypropyl)moranoline tosylate] to `CC(C)=CCCC(C)=CCCC(C)=CCN1CC(O)C(O)C(O)C1CO` (stereo not shown) [Compound No. 26, N-Farnesylmoranoline tosylate], the “Diameter (mm) of the circle due” value rises from 4.1 mm to 5.7 mm.

First: CNC(=O)CCCCCCCCCCN1C[C@H](O)[C@@H](O)[C@H](O)[C@H]1CO [Compound No. 27, N-10-(N-Methylcarbamoyl)decylmoranoline]
Second: OC[C@@H]1[C@@H](O)[C@H](O)[C@@H](O)CN1CCC=Cc1ccccc1 [Compound No. 28, N-(4-Phenyl-3-butenyl)moranoline tosylate]
The “Diameter (mm) of the circle due” value of the first is higher: 8.5 mm for the first, 8.3 mm for the second.

First: CC(=Cc1ccccc1)CN1C[C@H](O)[C@@H](O)[C@H](O)[C@H]1CO [Compound No. 29, N-(3-Phenyl-2-methyl-2-propenyl)moranoline]
Second: OC[C@@H]1[C@@H](O)[C@H](O)[C@@H](O)CN1CCCOc1ccccc1Cl [Compound No. 30, N-(3-o-Chlorophenoxypropyl)moranoline]
The “Diameter (mm) of the circle due” value of the first is lower: 7.1 mm for the first, 7.6 mm for the second.

First: CC(=CCN1C[C@H](O)[C@@H](O)[C@H](O)[C@H]1CO)c1ccc(Br)cc1 [Compound No. 31, N-(γ-Methyl-4-bromocinnamyl)moranoline]
Second: Cc1ccc(CCCCN2C[C@H](O)[C@@H](O)[C@H](O)[C@H]2CO)cc1F [Compound No. 32, N-[4-(3-Fluoro-4-methylphenyl)butyl]moranoline]
The “Diameter (mm) of the circle due” value of the first is higher: 7.9 mm for the first, 7.5 mm for the second.

First: CCOc1ccc(C=CCN2CC(O)C(O)C(O)C2CO)cc1 (stereo not shown) [Compound No. 33, N-(p-Ethoxycinnamyl)moranoline]
Second: CC(C)Oc1ccc(C=CCN2CC(O)C(O)C(O)C2CO)cc1 (stereo not shown) [Compound No. 34, N-(p-Isopropoxycinnamyl)moranoline]
The “Diameter (mm) of the circle due” value of the first is higher: 7.8 mm for the first, 7.6 mm for the second.

Compared with `CC(=CCN1C[C@H](O)[C@@H](O)[C@H](O)[C@H]1CO)c1cccc(C)c1` [Compound No. 35, N-(γ-Methyl-m-methylcimnnamyl)moranoline], `COc1cccc(C(C)=CCCN2C[C@H](O)[C@@H](O)[C@H](O)[C@H]2CO)c1` [Compound No. 36, N-(4-m-Methoxyphenyl-3-pentenyl)moranoline] is lower in “Diameter (mm) of the circle due” value: 7.8 mm for the first, 7.6 mm for the second.

`CCOC(=O)c1ccc(OCCN2C[C@H](O)[C@@H](O)[C@H](O)[C@H]2CO)cc1` [Compound No. 37, N-(p-Ethoxycarbonylphenoxyethyl)moranoline] and `O[C@H]1[C@H](O)[C@@H](O)CN2CC[C@H](O)[C@H]12` [Compound No. 38, Castanospermine] are the same in “Diameter (mm) of the circle due” value: 6.9 mm for the first, 6.9 mm for the second.

In the case of N-Isoprenylmoranoline [Compound No. 9], the “Diameter (mm) of the circle due” value is reported as 8.2 mm.

Test system: α2-plasmin inhibitor (α2-PI)
Experiment: α2-PI activity in culture medium of HepG2 cells (plasmin / S-2251 chromogenic substrate)
Format: cell-based, human
Conditions: 200 µg/ml of compound, serum-free medium, 3 to 4 days, culture without test compound = 100%, n=3
Method: It is known that human hepatic cancer-derived HepG2 cells synthesize and secrete α2-plasmin inhibitor (α2-PI). The HepG2 cells, 2 x 10^6, were inoculated on a plastic culture plate (diameter of 100 mm) made by Falcon Inc. and cultured in Eagle's minimum medium containing 10% bovine fetal serum.
Three days after, cells adhered to the bottom of the plate were washed twice with Dulbecco's phosphate buffer followed by culturing in 8 ml of serum-free Eagle's medium (containing no Phenol Red) containing 200 µg/ml of a specimen of the compound of the present invention for further 3 to 4 days. […]
To 100 µl of the concentrated sample, 50 µl of 15 mCU plasmin solution was added and further 50 µl of 0.25 µmole S-2251 synthetic chromogenic substrate solution was added thereto followed by reacting at 37°C for 10 minutes. By adding 1 ml of 2% citrate solution, the reaction was stopped. p-Nitroanilide released from the S-2251 substrate was measured at O.D. of 405 nm.
A sample in which decomposition of the S-2251 substrate was measured using the aforesaid Tris buffer instead of the concentrated sample was made a control showing 100% plasmin activity and the concentrated sample cultured without adding a test compound was made a control showing 100% α2-PI activity. […]

Going from N-Isoprenylmoranoline [Compound No. 9] to Nojirimycin bisulfite [Compound No. 6], the “α2-PI activity (%)” value rises from 55% to 67%.
